Results reported in US9320276B2, “N-hetarylmethyl pyrazolylcarboxamides” (BAYER INTELLECTUAL PROPERTY GMBH, priority 2010, dated 2016).
One block for each molecule: values may come before it.

What was measured:
Septoria tritici = test: in vivo preventive test on Septoria tritici (wheat); conditions: 500 ppm of active ingredient, evaluated 21 days after inoculation
Method: (§1) Solvent: 49 parts by weight of N,N-dimethylacetamide Emulsifier: 1 part by weight of alkylaryl polyglycol ether To produce a suitable preparation of active compound, 1 part by weight of active compound or active compound combination is mixed with the stated amounts of solvent and emulsifier, and the concentrate is diluted with water to the desired concentration. To test for preventive activity, young plants are sprayed with the preparation of active compound or active compound combination at the stated rate of application. After the spray coating has been dried, the plants are sprayed with a spore suspension of Septoria tritici. The plants remain for 48 hours in an incubation cabinet at approximately 20° C. and a relative atmospheric humidity of approximately 100% and afterwards for 60 hours at approximately 15° C. in a translucent incubation cabinet at a relative atmospheric humidity of approximately 100%. The plants are placed in the greenhouse at a temperature of approximately 15° C. and a relative atmospheric humidity of approximately 80%. The test is evaluated 21 days after the inoculation. 0% means an efficacy which corresponds to that of the untreated control, while an efficacy of 100% means that no disease is observed.

Sphaerotheca fuliginea = test: in vivo preventive test on Sphaerotheca fuliginea (cucumber); conditions: 500 ppm of active ingredient, evaluated 7 days after inoculation
Method: Solvent: 49 parts by weight of N,N-dimethylformamide Emulsifier: 1 part by weight of Alkylarylpolyglycolether To produce a suitable preparation of active compound, 1 part by weight of active compound is mixed with the stated amounts of solvent and emulsifier, and the concentrate is diluted with water to the desired concentration. To test for preventive activity, young plants are sprayed with the preparation of active compound at the stated rate of application. One day after this treatment, the plants are inoculated with an aqueous spore suspension of Sphaerotheca fuliginea. Then the plants are placed in a greenhouse at approximately 23° C. and a relative atmospheric humidity of approximately 70%. The test is evaluated 7 days after the inoculation. 0% means an efficacy which corresponds to that of the untreated control, while an efficacy of 100% means that no disease is observed.

Alternaria solani = test: in vivo preventive test on Alternaria solani (tomato); conditions: 500 ppm of active ingredient, evaluated 7 days after inoculation
Method: Solvent: 49 parts by weight of N,N-dimethylformamide Emulsifier: 1 part by weight of Alkylarylpolyglycolether To produce a suitable preparation of active compound, 1 part by weight of active compound is mixed with the stated amounts of solvent and emulsifier, and the concentrate is diluted with water to the desired concentration. To test for preventive activity, young plants are sprayed with the preparation of active compound at the stated rate of application. One day after this treatment, the plants are inoculated with an aqueous spore suspension of Alternaria solani. The plants remain for one day in an incubation cabinet at approximately 22° C. and a relative atmospheric humidity of 100%. Then the plants are placed in an incubation cabinet at approximately 20° C. and a relative atmospheric humidity of 96%. The test is evaluated 7 days after the inoculation. 0% means an efficacy which corresponds to that of the untreated control while an efficacy of 100% means that no disease is observed.

Pyrenophora teres = test: in vivo preventive test on Pyrenophora teres (barley); conditions: 500 ppm of active ingredient, evaluated 7-9 days after inoculation
Summary of the method: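 Young barley plants sprayed with compound in DMF/alkylaryl polyglycol ether emulsion; inoculated with P. teres spores one day later. 48 h at 22 °C, 100% humidity, then greenhouse ~20 °C, ~80% humidity; efficacy scored 7-9 days post-inoculation, 0% = untreated, 100% = no disease.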

[1] = logP by HPLC on reversed-phase column (EEC Directive 79/831 Annex V.A8); assay type: physicochemical; conditions: HPLC on reversed-phase column (C 18), 40° C., 0.1% aqueous formic acid and acetonitrile, linear gradient 10% to 90% acetonitrile
Summary of the method: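 Reversed-phase C18 HPLC at 40° C with 0.1% aqueous formic acid/acetonitrile, linear gradient 10% to 90% acetonitrile. LogP obtained from retention time by linear interpolation between successive unbranched alkan-2-ones (3 to 16 carbons) of known logP. Lambda-max taken from UV spectra at 200-400 nm at chromatographic peak maxima.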

[2] = tested on: Fusarium nivale (var. majus); test: in vivo curative test on Fusarium nivale (wheat); conditions: 500 ppm of active ingredient, evaluated 5 days after inoculation
Method: Solvent: 49 parts by weight of N,N-dimethylacetamide Emulsifier: 1 part by weight of alkylaryl polyglycol ether To produce a suitable preparation of active compound, 1 part by weight of active compound or active compound combination is mixed with the stated amounts of solvent and emulsifier, and the concentrate is diluted with water to the desired concentration. To test for curative activity, young plants are slightly injured by using a sandblast and afterwards they are sprayed with a conidia suspension of Fusarium nivale (var. majus) and placed for 24 hours in a greenhouse under a translucent incubation cabinet at a temperature of approximately 10° C. and a relative atmospheric humidity of approximately 100% and are subsequently sprayed with the preparation of active compound at the stated rate of application. After the spray coating has been dried, the plants remain in the greenhouse under translucent incubation cloches at a temperature of approximately 10° C. and a relative atmospheric humidity of approximately 100%. The test is evaluated 5 days after the inoculation. 0% means an efficacy which corresponds to that of the untreated control, while an efficacy of 100% means that no disease is observed.

Leptosphaeria nodorum = test: in vivo preventive test on Leptosphaeria nodorum (wheat); conditions: 500 ppm of active ingredient, evaluated 7-9 days after inoculation
Method: Solvent: 49 parts by weight of N,N-dimethylacetamide Emulsifier: 1 part by weight of alkylaryl polyglycol ether To produce a suitable preparation of active compound, 1 part by weight of active compound is mixed with the stated amounts of solvent and emulsifier, and the concentrate is diluted with water to the desired concentration. To test for preventive activity, young plants are sprayed with a preparation of active compound at the stated rate of application. One day after this treatment, the plants are inoculated with an aqueous spore suspension of Leptosphaeria nodorum. The plants remain for 48 hours in an incubation cabinet at 22° C. and a relative atmospheric humidity of 100%. Then the plants are placed in a greenhouse at a temperature of approximately 22° C. and a relative atmospheric humidity of approximately 90%. The test is evaluated 7-9 days after the inoculation. 0% means an efficacy which corresponds to that of the untreated control, while an efficacy of 100% means that no disease is observed.

Puccinia triticina = test: in vivo protective test on Puccinia triticina (wheat); conditions: 500 ppm of active ingredient, preventive, evaluated 8 days after inoculation
Method: as §1, with “Puccinia triticina.” for “Septoria tritici.”, “approximately” for “approximately 100% and afterwards for 60 hours at approximately 15° C. in a translucent incubation cabinet at a relative atmospheric humidity of approximately”, “20°” for “15°”, “8” for “21”

[3] = tested on: Blumeria graminis fsp. hordei; test: in vivo preventive test on Blumeria graminis (barley); conditions: 500 ppm of active ingredient, evaluated 7 days after inoculation
Method: Solvent: 49 parts by weight of N,N-dimethylacetamide Emulsifier: 1 part by weight of alkylaryl polyglycol ether To produce a suitable preparation of active compound, 1 part by weight of active compound or active compound combination is mixed with the stated amounts of solvent and emulsifier, and the concentrate is diluted with water to the desired concentration. To test for preventive activity, young plants are sprayed with the preparation of active compound or active compound combination at the stated rate of application. After the spray coating has been dried, the plants are dusted with spores of Blumeria graminis fsp. hordei. The plants are placed in the greenhouse at a temperature of approximately 18° C. and a relative atmospheric humidity of approximately 80% to promote the development of mildew pustules. The test is evaluated 7 days after the inoculation. 0% means an efficacy which corresponds to that of the untreated control, while an efficacy of 100% means that no disease is observed.

Venturia inaequalis = test: in vivo preventive test on Venturia inaequalis (apple scab); conditions: 100 ppm of active ingredient, evaluated 10 days after inoculation
Method: Solvent: 24.5 parts by weight of acetone • 24.5 parts by weight of N,N-dimethylacetamide Emulsifier: 1 part by weight of alkylaryl polyglycol ether To produce a suitable preparation of active compound, 1 part by weight of active compound is mixed with the stated amounts of solvent and emulsifier, and the concentrate is diluted with water to the desired concentration. To test for preventive activity, young plants are sprayed with the preparation of active compound at the stated rate of application. After the spray coating has dried on, the plants are inoculated with an aqueous conidia suspension of the causal agent of apple scab (Venturia inaequalis) and then remain for 1 day in an incubation cabinet at approximately 20° C. and a relative atmospheric humidity of 100%. The plants are then placed in a greenhouse at approximately 21° C. and a relative atmospheric humidity of approximately 90%. The test is evaluated 10 days after the inoculation. 0% means an efficacy which corresponds to that of the untreated control, while an efficacy of 100% means that no disease is observed.

Structure (SMILES): Cn1nc(C(F)F)c(C(=O)N(Cc2c(Cl)cncc2Cl)C2CC2)c1F [Example 115]
- Efficacy (Septoria tritici): 86%
- Efficacy (Sphaerotheca fuliginea): 83%
- Efficacy (Alternaria solani): 100%
- Efficacy (Pyrenophora teres): 100%
- logP [1]: 2.54
- Efficacy [2]: 71%
- Efficacy (Leptosphaeria nodorum): 80%

Structure (SMILES): Cc1ccsc1CN(C(=O)c1c(C(F)F)nn(C)c1F)C1CC1 [Example 40]
- Efficacy (Septoria tritici): 100%
- Efficacy (Sphaerotheca fuliginea): 90%
- Efficacy (Alternaria solani): 95%
- Efficacy (Pyrenophora teres): 100%
- Efficacy (Puccinia triticina): 71%
- logP [1]: 2.88
- Efficacy [2]: 92%
- Efficacy [3]: 100%

Structure (SMILES): Cn1nc(C(F)F)c(C(=O)N(Cc2cc3ccccc3o2)C2CC2)c1F [Example 71]
- Efficacy (Septoria tritici): 100%
- Efficacy (Pyrenophora teres): 100%
- logP [1]: 3.11
- Efficacy [2]: 100%
- Efficacy (Leptosphaeria nodorum): 80%
- Efficacy [3]: 89%

Structure (SMILES): Cc1cc(C(C)N(C(=O)c2c(C(F)F)nn(C)c2F)C2CC2)c(C)s1 (stereo not shown) [Example 48]
- Efficacy (Septoria tritici): 100%
- Efficacy (Alternaria solani): 95%
- Efficacy (Pyrenophora teres): 100%
- logP [1]: 3.62
- Efficacy [2]: 86%
- Efficacy (Leptosphaeria nodorum): 100%
- Efficacy [3]: 100%

Structure (SMILES): Cn1nc(C(F)F)c(C(=O)N(Cc2cccc3ccsc23)C2CC2)c1F [Example 93]
- Efficacy (Septoria tritici): 100%
- Efficacy (Alternaria solani): 100%
- Efficacy (Pyrenophora teres): 100%
- Efficacy (Puccinia triticina): 100%
- logP [1]: 3.19
- Efficacy [2]: 71%
- Efficacy [3]: 94%

Structure (SMILES): CC(c1csc2ccccc12)N(C(=O)c1c(C(F)F)nn(C)c1F)C1CC1 (racemic) [Example 85]
- Efficacy (Septoria tritici): 90%
- Efficacy (Sphaerotheca fuliginea): 94%
- Efficacy (Venturia inaequalis): 100%
- Efficacy (Alternaria solani): 80%
- Efficacy (Pyrenophora teres): 100%
- logP [1]: 3.60
- Efficacy [2]: 100%
- Efficacy (Leptosphaeria nodorum): 100%
- Efficacy [3]: 100%

The next lines start with results.

- logP [1]: 3.64
Structure (SMILES): Cc1c(CN(C(=O)c2c(C(F)F)nn(C)c2F)C2CC2)sc2ccccc12 [Example 122]
- Efficacy (Septoria tritici): 100%
- Efficacy (Alternaria solani): 95%
- Efficacy (Pyrenophora teres): 100%
- Efficacy (Puccinia triticina): 100%
- Efficacy [2]: 93%
- Efficacy (Leptosphaeria nodorum): 100%

- logP [1]: 3.27
Structure (SMILES): Cn1nc(C(F)F)c(C(=O)N(Cc2csc3ccccc23)C2CC2)c1F [Example 90]
- Efficacy (Septoria tritici): 100%
- Efficacy (Alternaria solani): 95%
- Efficacy (Pyrenophora teres): 100%
- Efficacy (Puccinia triticina): 88%
- Efficacy [2]: 100%
- Efficacy (Leptosphaeria nodorum): 100%
- Efficacy [3]: 100%

- logP [1]: 3.73
Structure (SMILES): Cn1nc(C(F)F)c(C(=O)N(Cc2csc3ccc(Cl)cc23)C2CC2)c1F [Example 143]
- Efficacy (Septoria tritici): 100%
- Efficacy (Sphaerotheca fuliginea): 95%
- Efficacy (Alternaria solani): 95%
- Efficacy (Pyrenophora teres): 100%
- Efficacy [3]: 94%

- logP [1]: 3.96
Structure (SMILES): Cn1nc(C(F)F)c(C(=O)N(Cc2cc3ccccc3n2-c2ccccc2)C2CC2)c1F [Example 155]
- Efficacy (Septoria tritici): 100%
- Efficacy (Alternaria solani): 95%
- Efficacy (Pyrenophora teres): 100%
- Efficacy (Puccinia triticina): 75%
- Efficacy [2]: 100%
- Efficacy (Leptosphaeria nodorum): 80%
- Efficacy [3]: 70%

- logP [1]: 4.04
Structure (SMILES): Cc1nn(-c2ccccc2)nc1CN(C(=S)c1c(C(F)F)nn(C)c1F)C1CC1 [Example 132]
- Efficacy (Sphaerotheca fuliginea): 100%
- Efficacy (Venturia inaequalis): 98%
- Efficacy (Alternaria solani): 90%
- Efficacy (Pyrenophora teres): 100%

- logP [1]: 2.23
Structure (SMILES): CC(c1cccnc1Cl)N(C(=O)c1c(C(F)F)nn(C)c1F)C1CC1 (stereo not shown) [Example 50]
- Efficacy (Septoria tritici): 71%
- Efficacy (Sphaerotheca fuliginea): 100%
- Efficacy (Alternaria solani): 95%
- Efficacy (Pyrenophora teres): 100%
- Efficacy (Leptosphaeria nodorum): 71%
- Efficacy [3]: 89%
